Results published in paper PMC9400670, “Establishing the selective phospholipid membrane coordination, permeation and lysis properties for a series of ‘druggable’ supramolecular self-associating antimicrobial amphiphiles” (Chemical Science, 2022).
Values after ≈ are worked out from the molar mass of the structure shown.

Legend:
[1] = test system: MRSA USA300; assay: MIC50 determination and initial screening from OD600 growth curves, MRSA USA300; assay type: cell-based, Staphylococcus aureus
Excerpt: The antimicrobial activity of SSAs 1–14 was established against both a model Gram-positive, clinically relevant methicillin resistant Staphylococcus aureus (MRSA), and a model Gram-negative, E. coli bacteria, Table 1. Here MIC50 values are given in mM to enable the derivation of molecular structure: antimicrobial efficacy: physical property relationships. […]
Data were acquired in endpoint mode. […]
Section 3: Microbial Methods
These methods were taken directly from UK Health and Security Office (UKHSA) standard operating […]
Preparation of Luria Broth media (LB): Yeast extract (5 g), tryptone (10 g) and sodium chloride (10 g) were dissolved in dH₂O (1 L) then divided into bottles and autoclaved.
Preparation of Luria Broth (LB) agar plates: Agar (6 g) was added to LB (400 mL) and autoclaved. Once cool, the LB agar was poured into sterile petri dishes under sterile conditions and allowed to set. LB plates were stored at 4 °C until use.
Preparation of bacterial plates: Sterile LB agar plates were streaked using Escherichia coli DH10B or USA300 Methicillin-Resistant Staphylococcus aureus then incubated at 37 °C overnight.
Preparation of Inoculum: An initial culture was made up by inoculating LB media (5 mL) with a single colony of bacteria under sterile conditions and incubated at 37 °C with shaking overnight. The following day, overnight bacterial cultures were subcultured into fresh LB medium to a starting OD600 […]
Preparation of 96 well microplate for screening: 20 mM solutions of each compound to be tested were made up using 5 % ethanol. The 1:100 cell suspension (150 µL) was pipetted into the wells and SSA compound solutions (30 µL) were added into each well. The final screening concentration for each compound was 3.3 mM in the well. These were incubated for 20 hours in a plate reader, with optical density readings being taken at 600 nm every 15 minutes. Optical density readings were plotted against time to produce growth curves. […]
individual wells under sterile conditions. Compounds (30 µL) were added to the wells to equal a total volume of 180 µL in the wells. Six repeats of each concentration for each compound were created each plate. The plates were sealed using parafilm, then incubated at 37°C in a microplate reader for 18-25 hours. Optical density readings were taken at 600 nm every 15 min. Data was used to generate […]
Calculation of MIC50: Growth curves were plotted using OD600 optical density readings in Microsoft ® Excel ® 2013. OD600 optical density readings 900 minutes from the start of each of these growth cultures for each concentration of compound were plotted in Origin ® 2015. The resultant curve was normalized and fitted using the Boltzmann fit to define the MIC50 values for each compound.

[2] = test system: E. coli DH10B; settings: cited from earlier work; for MIC50 E. coli: E. coli DH10B, n = 3, 0.5 McFarland standard, number in bracket = efficacy rank
[3] = test system: PC lipid vesicles; assay: Synthetic phospholipid vesicle membrane binding assay (fluorescence polarisation), PC vesicles; settings: lipid vesicles added to SSA (0.15 mM); n = 3; error = standard error; SSA alone set to 100 mP
Procedure: (§1) For intrinsically fluorescent SSAs 5, 6 and 8–12, FP titration experiments enabled the observation of SSA: phospholipid vesicle interactions. Here, an increase in FP value indicates an increase in the apparent size of the SSA as it interacts with the phospholipid vesicle. […]
(§2) Fluorescence polarisation: Lipid films were resuspended in Buffer (150 mM KCl, 10 mM HEPES, pH 7.4, 2 mM EGTA) and subjected to 9 freeze-thaw cycles in liquid nitrogen and extruded 20 times through a 200 nm polycarbonate membrane. Black bottom 96-well plates were prepared by serially diluting desired vesicle solution across the plate, the appropriate SSA solution (100 µL, 0.15 mM) was added to each well to give a total well volume of 200 µL. Fluorescent SSA solutions were set to a FP value of 100 mP. Data were acquired in endpoint mode. […]

[4] = test system: E. coli total lipid vesicles; assay: Synthetic phospholipid vesicle membrane binding assay (fluorescence polarisation), E. coli total vesicles; settings: lipid vesicles added to SSA (0.15 mM); n = 3; error = standard error; SSA alone set to 100 mP
Procedure: as §1, §2

[5] = Staphylococcus aureus, 15 h, Table S3, conversion of the mM values of Table 1, MRSA USA300, after 900 mins
[6] = Staphylococcus aureus, 15 h, MRSA USA300, n = 3, 0.5 McFarland standard, after 900 min, number in bracket = efficacy rank, SSA 11 estimated due to data quality

MIC50 [1, 5]	increase in FP, PC [3]	MIC50 [1, 6]	SMILES	MIC50 E. coli ([2]; after 900 min)	increase in FP, E. coli total [4]	other results
248 µg/mL			O=C(NCS(=O)(=O)O)Nc1ccc(C(F)(F)F)cc1 [SSA 1]	3.85(7) mM		
574 µg/mL			O=C(O)CNC(=O)Nc1ccc(C(F)(F)F)cc1 [SSA 4]	1.25(2) mM		
599 µg/mL	87 ± 4 mP		O=C(NCS(=O)(=O)O)Nc1ccccc1-c1nc2ccccc2s1 [SSA 5]	3.57(5) mM	32 ± 3 mP	
760 µg/mL	35 ± 10 mP	1200 µM	Cc1ccc2nc(-c3ccc(NC(=O)NCCC(=O)O)cc3)sc2c1 [SSA 9]		130 ± 5 mP	

Continued, compound first:

SMILES	MIC50 [1, 5]	increase in FP, PC [3]	MIC50 [1, 6]	MIC50 E. coli ([2]; after 900 min)	increase in FP, E. coli total [4]	other results
O=C(NCCCS(=O)(=O)O)Nc1ccc(C(F)(F)F)cc1 [SSA 2]				1.48(3) mM		
O=C(NCS(=O)(=O)O)Nc1ccc(C(F)(F)F)cc1 [SSA 3]						MIC50 MRSA ([1]; Table S3, conversion of the mM values of Table 1, MRSA USA300, after 900 mins): 132 µg/mL (≈ 443 µM); initial antimicrobial screening, inhibition of growth, E. coli ([2]; 3.3 mM, after 900 min): ^c (SSA did not pass initial antimicrobial screening, exhibited <10% inhibition of growth at 3.3 mM after 900 min and therefore excluded from further study); initial antimicrobial screening outcome, E. coli ([2]; Table S3, screening at 3.3 mM): Fail
Cc1ccc2nc(-c3ccc(NC(=O)NCS(=O)(=O)O)cc3)sc2c1 [SSA 6]	576 µg/mL	47 ± 8 mP		5.02(8) mM	20 ± 1 mP	
Cc1ccc2nc(NC(=O)NCS(=O)(=O)O)sc2c1 [SSA 7]						inhibition at 3300 µM ([1]; Staphylococcus aureus, 15 h, 3.3 mM, after 900 min, read-out: initial antimicrobial screening, inhibition of growth, MRSA): < 10%; initial antimicrobial screening outcome, MRSA ([1]; Table S3, screening at 3.3 mM): Fail
O=C(NCS(=O)(=O)O)Nc1ccc(-c2nc3ccccc3s2)cc1 [SSA 8]	696 µg/mL	35 ± 4 mP	1150 µM		24 ± 3 mP	
Cc1ccc2nc(-c3ccc(NC(=O)NCCCS(=O)(=O)O)cc3)sc2c1 [SSA 10]	382 µg/mL	26 ± 1 mP	590 µM		15 ± 2 mP	
Cc1ccc2nc(-c3ccc(NC(=O)NCC(=O)O)cc3)sc2c1 [SSA 11]	181 to 367 µg/mL	68 ± 1 mP	310 to 630 µM		66 ± 4 mP	
Cc1ccc2nc(-c3ccc(NC(=S)NCS(=O)(=O)O)cc3)sc2c1 [SSA 12]		163 ± 6 mP			199 ± 5 mP	
